Columns and labels:
[1] = biological target: T1, KDM5B-PHD1-L309A (Homo sapiens, UniProt Q9UGL1, L309A); assay: ITC binding, PHD1 L309A mutant; details: Table S1, pH 7.5, 25°C
T1 construct: PHDKDM5B (residues 306–360 aa); GST (N, cleaved yes); made in house
Protocol: (§1) A similar PHDKDM5B construct was used for the sample required in the NMR experiments. ^13C- and ^15N-labeled PHDKDM5B were prepared in M9 medium. Site-directed mutagenesis was performed using a QuikChange site-directed mutagenesis kit (Stratagene Inc. La Jolla, California, U.S.A). All of the DNA constructs were sequenced, and the molecular weights of the recombinant proteins were verified by mass spectrometry (MALDI).
(§2) To investigate whether the PHD1KDM5B finger and its mutants interact with unmodified or methylated H3K4 or H3K4mutants, the binding affinities of PHD1KDM5B or its mutants to H3 peptides were studied. An ITC-200 microcalorimeter (GE Healthcare) was used with a buffer containing 20 mmol/L Tris, 150 mmol/L NaCl, and 1% Triton X-100, pH 7.5 at 25°C. The reference titration of small molecules in the buffer was subtracted from the experimental data, and the data were fitted using the Origin 7.0 (OriginLab Corporation) software.

[2] = biological target: T2, KDM5B-PHD1-V311A (Homo sapiens, UniProt Q9UGL1, V311A); assay: ITC binding, PHD1 V311A mutant; details: Table S1, pH 7.5, 25°C
T2 construct: PHDKDM5B (residues 306–360 aa); GST (N, cleaved yes); made in house
T2 sequence (Q9UGL1 306-360 V311A): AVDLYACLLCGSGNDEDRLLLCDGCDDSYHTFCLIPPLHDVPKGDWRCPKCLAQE
Protocol: as §1, §2

[3] = biological target: T3, KDM5B-PHD1-D322A (Homo sapiens, UniProt Q9UGL1, D322A); assay: ITC binding, PHD1 D322A mutant; details: Table S1, pH 7.5, 25°C
T3 construct: PHDKDM5B (residues 306–360 aa); GST (N, cleaved yes); made in house
T3 sequence (Q9UGL1 306-360 D322A): as the sequence (Q9UGL1 306-360 V311A) above, with A6V, D17A counted along it
Protocol: as §1, §2

[4] = biological target: T4, KDM5B-PHD1-L324A (Homo sapiens, UniProt Q9UGL1, L324A); assay: ITC binding, PHD1 L324A mutant; details: Table S1, pH 7.5, 25°C
T4 construct: PHDKDM5B (residues 306–360 aa); GST (N, cleaved yes); made in house
T4 sequence (Q9UGL1 306-360 L324A): as the sequence (Q9UGL1 306-360 V311A) above, with A6V, L19A counted along it
Protocol: as §1, §2

[5] = biological target: T5, KDM5B-PHD1-L325A (Homo sapiens, UniProt Q9UGL1, L325A); assay: ITC binding, PHD1 L325A mutant
T5 construct: PHDKDM5B (residues 306–360 aa); GST (N, cleaved yes); made in house
T5 sequence (Q9UGL1 306-360 L325A): as the sequence (Q9UGL1 306-360 V311A) above, with A6V, L20A counted along it
Protocol: as §1, §2

[6] = biological target: T6, KDM5B-PHD1-D332A (Homo sapiens, UniProt Q9UGL1, D332A); assay: ITC binding, PHD1 D332A mutant; details: Table S1, pH 7.5, 25°C
T6 construct: PHDKDM5B (residues 306–360 aa); GST (N, cleaved yes); made in house
T6 sequence (Q9UGL1 306-360 D332A): as the sequence (Q9UGL1 306-360 V311A) above, with A6V, D27A counted along it
Protocol: as §1, §2

[7] = biological target: T7, KDM5B-PHD1-S333A (Homo sapiens, UniProt Q9UGL1, S333A); assay: ITC binding, PHD1 S333A mutant; details: Table S1, pH 7.5, 25°C
T7 construct: PHDKDM5B (residues 306–360 aa); GST (N, cleaved yes); made in house
T7 sequence (Q9UGL1 306-360 S333A): as the sequence (Q9UGL1 306-360 V311A) above, with A6V, S28A counted along it
Protocol: as §1, §2

[8] = biological target: T8, KDM5B-PHD1-Y334A (Homo sapiens, UniProt Q9UGL1, Y334A); assay: ITC binding, PHD1 Y334A mutant; details: Table S1, pH 7.5, 25°C
T8 construct: PHDKDM5B (residues 306–360 aa); GST (N, cleaved yes); made in house
T8 sequence (Q9UGL1 306-360 Y334A): as the sequence (Q9UGL1 306-360 V311A) above, with A6V, Y29A counted along it
Protocol: as §1, §2

[9] = biological target: T9, KDM5B-PHD1-D345A (Homo sapiens, UniProt Q9UGL1, D345A); assay: ITC binding, PHD1 D345A mutant; details: Table S1, pH 7.5, 25°C
T9 construct: PHDKDM5B (residues 306–360 aa); GST (N, cleaved yes); made in house
T9 sequence (Q9UGL1 306-360 D345A): as the sequence (Q9UGL1 306-360 V311A) above, with A6V, D40A counted along it
Protocol: as §1, §2

[10] = biological target: T10, KDM5B-PHD1-W351A (Homo sapiens, UniProt Q9UGL1, W351A); assay: ITC binding, PHD1 W351A mutant
T10 construct: PHDKDM5B (residues 306–360 aa); GST (N, cleaved yes); made in house
T10 sequence (Q9UGL1 306-360 W351A): as the sequence (Q9UGL1 306-360 V311A) above, with A6V, W46A counted along it
Protocol: as §1, §2

T1 sequence (Q9UGL1 306-360 L309A): as the sequence (Q9UGL1 306-360 V311A) above, with L4A, A6V counted along it

- Kd [1]: 8.3 ± 0.5 µM
- Kd [2]: 8.2 ± 0.3 µM
- Kd [3]: 10.7 ± 0.5 µM
- Kd [4]: 15.3 ± 0.7 µM
- binding affinity [5]: non-detectable
- Kd [6]: 11.3 ± 0.5 µM
- Kd [7]: 12.9 ± 0.5 µM
- Kd [8]: 12.6 ± 0.4 µM
- Kd [9]: 6.7 ± 0.3 µM
- binding affinity [10]: non-detectable
Compound: C[C@H](N)C(=O)N[C@@H](CCCNC(=N)N)C(=O)N[C@H](C(=O)N[C@@H](CCCCN)C(=O)N[C@@H](CCC(N)=O)C(=O)N[C@H](C(=O)N[C@@H](C)C(=O)N[C@@H](CCCNC(=N)N)C(=O)N[C@@H](CCCCN)C(=O)N[C@@H](CO)C(=O)O)[C@@H](C)O)[C@@H](C)O [H3K4me0]

From PMC4225485, “The PHD1 finger of KDM5B recognizes unmodified H3K4 during the demethylation of histone H3K4me2/3 by KDM5B” (Protein & Cell, 2014)
